Data taken from paper PMC6005348, “Betahistine Treatment in a Cat Model of Vestibular Pathology: Pharmacokinetic and Pharmacodynamic Approaches” (Frontiers in Neurology, 2018).

Test system: unilateral vestibular neurectomized cats (UVN)
Assay: Support surface measurement: recovery of static posture after unilateral vestibular neurectomy
Assay type: in vivo, cat
Conditions: for Normalized posture area: DAY 2 of treatment, pre-operative value = 1, control 4.6
Description: We have previously described the surgery for vestibular neurectomy ([35]). “Adult male cats weighing 4–5 kg were anesthetized with ketamine (20 mg/kg, i.m.; Rhône Poulenc, Mérieux, France), received an analgesic (Tolfenamic acid: tolfedine, 0.5 ml, i.m.; Vetoquinol, Lure, France) and were kept at physiological body temperature using a blanket. The vestibular nerve was sectioned on the left-side at the post-ganglion level in order to leave the auditory division intact after mastoidectomy, partial destruction of the bony labyrinth, and surgical exposure of the internal auditory canal. Animals were maintained under antibiotics for 7 days and analgesics for 3 days.”
One […] group (N = 4: cats 10–13) was submitted to a UVN and received post-operatively a vehicle (placebo group). Two groups of cats were treated with betahistine at the lower dose of 0.2 mg/kg/day (N = 3: cats 14–16) or at the higher dose of 2 mg/kg/day (N = 3: cats 17–19). Another group of cats received the combination of both betahistine at 0.2 mg/kg/day plus selegiline at the dose of 1 mg/kg/day (N = 3: cats 20–22).
Placebo treatment was pursued until full recovery of posture control in the control group, that is, 40 days on average. The same post-lesion period was investigated in the three experimental groups receiving betahistine or betahistine + selegiline.
We have described in previous papers how posture deficits and recovery were evaluated ([21]). The surface delimited by the four legs of the cat was measured while standing erect at rest, without walking. “Support surface is considered a good estimate of postural control since it reflects the cat's behavioral adaptation to compensate the static vestibulospinal deficits induced by the vestibular lesion. […] To quantify the support surface, cats were placed in a device with a graduated transparent floor that allowed them to be photographed from underneath. Five repeated measurements were done for each cat tested at each post-operative time, and an average was calculated for each experimental session. The support surface was measured as the surface delimited by the four legs by an image analysis system (Canvas, 9^TM, Deneba software, Miami, FL). Post-lesion data were compared to pre-lesion values by using individual references, each animal being its own control. Recovery of static posture function was assessed by the changes and development of the support surface over time. The recovery was considered as total when the support surface returned to the pre-operative value (unity, i.e., 1).”
Statistical analysis consisted of an ANOVA to test for changes at the different post-lesion days (2, 4, 6, 10, 15, 20, 25, 30, 35, 40 days) for the support surface in each group of cats. Repeated-measure analysis of variance was used to test (1) the effects of betahistine treatment (controls vs. treated cats), (2) the effects of the betahistine dose (0.2 vs. 2 mg/kg), and (3) the effects of additional selegiline on the lowest betahistine dose (0.2 mg/kg betahistine + 1 mg/kg selegiline).
ANOVA was followed by post-hoc analysis (Scheffe-test and multicomparison Fisher's test: Statview II software). Results were considered significant at P < 0.05. To distinguish between chronic and early effects of betahistine treatment a Two-way-ANOVA with day and treatment as discriminating factors was performed (GraphPad Prism 5.0). The Cohen's d-value (two means differences/largest standard deviation) was evaluated to test the size effect.

In the case of `CNCCc1ccccn1` [Betahistine, betahistine], the “Post-lesion day (D+) of complete recovery of posture” value (2 mg/kg betahistine group, earlier than controls) is reported as 10, the “Cohen's d, control versus treatment (support surface)” value (“Cohen's d, control versus treatment” for short) (Betahistine (0.2 mg), D+2) is reported as 0.657 and the “Cohen's d, control versus treatment” value (Betahistine (0.2 mg), D+4) is reported as 3.289. For the same compound, the “Cohen's d, control versus treatment” value (Betahistine (0.2 mg), D+6) was 2.510, the “Cohen's d, control versus treatment” value (Betahistine (0.2 mg), D+10) was 2.708 and the “Cohen's d, control versus treatment” value (Betahistine (0.2 mg), D+15) was 4.224. The “Cohen's d, control versus treatment” value (Betahistine (0.2 mg), D+20) was 2.064, the “Cohen's d, control versus treatment” value (Betahistine (0.2 mg), D+25) was 2.870 and the “Cohen's d, control versus treatment” value (Betahistine (0.2 mg), D+30) was 5.146. For the same compound, the “Cohen's d, control versus treatment” value (Betahistine (0.2 mg), D+40) was -1.447, the “Cohen's d, control versus treatment” value (Betahistine (2 mg), D+2) was 2.662 and the “Cohen's d, control versus treatment” value (Betahistine (2 mg), D+4) was 3.616. For the same compound, the “Cohen's d, control versus treatment” value (Betahistine (2 mg), D+6) was 2.799, the “Cohen's d, control versus treatment” value (Betahistine (2 mg), D+10) was 5.398 and the “Cohen's d, control versus treatment” value (Betahistine (2 mg), D+15) was 7.246. The “Cohen's d, control versus treatment” value (Betahistine (2 mg), D+20) was 13.857, the “Cohen's d, control versus treatment” value (Betahistine (2 mg), D+25) was 8.478 and the “Cohen's d, control versus treatment” value (Betahistine (2 mg), D+30) was 6.512. For the same compound, the “Cohen's d, control versus treatment” value (Betahistine (2 mg), D+40) was 3.320, the Normalized posture area (BH 0.2 mg/kg) was 3.98 and the Normalized posture area (BH 2.0 mg/kg) was 2.4. For the same compound, the “Difference from controls with respect to complete time of recovery (ANOVA)” value (betahistine 0.2 mg/kg, P < 0.15) was “did not significantly differed”, the “Support surface versus untreated cats, Bonferroni post-test” value (betahistine 0.2 mg/kg, p < 0.01, first week only) was “significant differences at the particular D+4 and D+6 time delays” and the “Complete time of recovery of posture” value (betahistine 0.2 mg/kg, same as controls) was “around 6 weeks”. For the same compound, the “Difference from controls with respect to complete time of recovery (ANOVA)” value (betahistine 2 mg/kg, P < 0.026) was “differed significantly”.
